# Measurements from patent publication US9199985B2, “Compounds and methods for treatment of hypertension” (Medivation Technologies, Inc., priority 2011, dated 2015).
# Conditions: conscious rabbits, intravenous, dose regimen identical to test compound; positive control
# Description: Four adult New Zealand White rabbits of both sexes are chosen for these studies. […] The conscious rabbits are implanted with an intravenous catheter in marginal ear vein or by centrally by intracisternal catheter interfaced to a pressure transducer connected to a suitable recorder. To unveil peripheral effects of test compound, two sets of acute studies are conducted in rabbits. In the first set of studies, test compound is dosed to rabbit intravenously for a dose-response study with cumulative doses starting 0 (Ringer's Lock solution as a vehicle), 0.1, 0.3, 1, 3.2 and 10 mg/kg where each dose is tested on a separate day. A single intravenous bolus dose at 3 mg/kg is given and a time-course study is conducted in the second set of studies. Systolic, diastolic, mean and diastolic blood pressures are recorded in both the studies. Data collections are made for 3 hours in the second set of studies. Heart rate (HR) is derived electronically using an algorithm to determine HR from pulse interval. In a separate set of studies, Clonidine (positive control) is tested where all experimental procedures including dose-regimen are identical to that of the studies with test compound.
structure (smiles),measurement,value
Clc1cccc(Cl)c1N=C1NCCN1 [Clonidine],maximum drop of arterial blood pressure,−6 mmHg
